Source: publication PMC12132917, “Carborane‐Based Analogs of Celecoxib and Flurbiprofen, their COX Inhibition Potential, and COX Selectivity Index” (Chemmedchem, 2025)
Read-outs that look alike come from different tables or passages of the source. Marks after values point to notes of the source that are not given here.

Tests used:
[1] = biological target: T1, recombinant human COX‐2 (Homo sapiens, UniProt P35354); format: biochemical; details: for IC50: read-out: IC50 [μM] (95% CI) COX‐2
T1 construct: purchased Cayman Chemical Company
T1 sequence (P35354 18-604): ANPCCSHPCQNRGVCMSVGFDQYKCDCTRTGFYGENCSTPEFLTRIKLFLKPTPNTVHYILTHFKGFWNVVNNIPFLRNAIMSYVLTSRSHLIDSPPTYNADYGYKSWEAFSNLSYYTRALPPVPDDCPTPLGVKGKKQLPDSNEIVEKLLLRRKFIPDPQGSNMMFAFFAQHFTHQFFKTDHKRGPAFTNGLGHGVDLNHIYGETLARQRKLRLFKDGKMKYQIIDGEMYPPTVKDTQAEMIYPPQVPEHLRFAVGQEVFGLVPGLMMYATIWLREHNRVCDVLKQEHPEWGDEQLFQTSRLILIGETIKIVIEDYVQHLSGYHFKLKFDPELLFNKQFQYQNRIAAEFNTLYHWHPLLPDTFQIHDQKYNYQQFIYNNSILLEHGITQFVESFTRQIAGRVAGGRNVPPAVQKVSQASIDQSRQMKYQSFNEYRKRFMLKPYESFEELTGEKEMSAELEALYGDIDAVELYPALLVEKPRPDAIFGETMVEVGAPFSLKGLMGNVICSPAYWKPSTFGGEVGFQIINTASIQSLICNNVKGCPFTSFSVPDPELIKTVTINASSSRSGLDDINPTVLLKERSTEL
Source text: (§1) For the cyclooxygenase assays, the fluorescence‐based COX assay “COX Fluorescent Inhibitor Screening Assay Kit” (Cayman Chemical Company, Ann Arbor, MI, USA) was used according to the manufacturer's instructions. […] All concentrations have been tested at least in duplicate.

[2] = Stability in DMSO/water (1:1, v/v) by HPLC-UV-MS or analytical HPLC; format: physicochemical; details: DMSO/H2O (1:1, v/v), RP-HPLC
Procedure: The stability of compounds 6, 7, 9, 10, 13a,b, and 14a,b in aqueous solution was studied by HPLC‐UV‐MS or analytical HPLC measurements as well (see Supporting Information for details, “4 HPLC Stability Determination of Compounds 6, 7, 9, 10, 13a, 13b, 14a, 14b”). All compounds except 13a were stable for at least one day (Supporting Information, section 4 ).
The stability was evaluated for all compounds in a mixture of DMSO, dried over molecular sieve, and LC‐MS grade water (1:1, v/v) with the same HPLC‐UV‐MS systems as described under “Purity Determination”. The column, eluent system, flow and MS tool were operated in the same way. For the stability determination, a few milligrams of each compound were dissolved in 1 mL DMSO. To dissolve the compounds, they were vortexed and heated up if necessary. The stock solution was further diluted with water. For that, 50–100 μL of the stock solution was transferred into a vial and the same amount of LC‐MS grade water was added. The two solvents were mixed thoroughly, and the measurement with HPLC‐UV‐MS was directly started. Additionally, measurements were performed in a varying time frame, from 15 or 20 min to 1 day. Usually, the injection volume was 10 μL, and before the measurement of the samples, a blank run with only DMSO/LC‐MS grade water (1:1, v/v) was performed. […] For the latter compounds, the aforementioned system (Agilent 1200 system) and the following gradient was used: 0–3 min 45% eluent B, 3–28 min 45%–95% eluent B, 28–34 min 95% eluent B, 34–35 min 95%–45% eluent B, then 35–40 min 45% eluent B, flow: 0.75 mL min^−1.
4 Stability Determination of Compounds 6, 7, 9, 10, 13a, 13b, 14a, 14b by HPLC A few milligrams of each compound have been dissolved in 1 mL DMSO, which was stored over molecular sieve.
50-100 µL of the DMSO solution have been transferred into a separate vial together with the same amount of LC-MS grade water. The mixture was measured directly after water addition and in time intervals from 20 min to 1 d by HPLC-UV-MS or analytical HPLC measurements. All compounds were stable for at least one day except for […]
rather for its nido-carborane analog, which was anyway the most prominent side product, no further stability measurements have been performed.
Figure S74. RP-HPLC chromatograms of blank (DMSO/H2O, black and green) and compound 6, retention time: 10.5 min, purity after 1 d: >98%.
Figure S75. RP-HPLC chromatograms of blank (DMSO/H2O, blue and pink) and compound 7, retention time: 8.3 min, purity after 1 d: >96%. […]

[3] = biological target: T2, ovine COX‐1 (Ovis aries, UniProt P05979); experiment: COX Fluorescent Inhibitor Screening Assay Kit (Cayman), COX-1 inhibition; format: biochemical; details: for IC50: read-out: IC50 [μM] (95% CI) COX‐1, absolute IC50
T2 construct: purchased Cayman Chemical Company
T2 sequence (P05979 25-600): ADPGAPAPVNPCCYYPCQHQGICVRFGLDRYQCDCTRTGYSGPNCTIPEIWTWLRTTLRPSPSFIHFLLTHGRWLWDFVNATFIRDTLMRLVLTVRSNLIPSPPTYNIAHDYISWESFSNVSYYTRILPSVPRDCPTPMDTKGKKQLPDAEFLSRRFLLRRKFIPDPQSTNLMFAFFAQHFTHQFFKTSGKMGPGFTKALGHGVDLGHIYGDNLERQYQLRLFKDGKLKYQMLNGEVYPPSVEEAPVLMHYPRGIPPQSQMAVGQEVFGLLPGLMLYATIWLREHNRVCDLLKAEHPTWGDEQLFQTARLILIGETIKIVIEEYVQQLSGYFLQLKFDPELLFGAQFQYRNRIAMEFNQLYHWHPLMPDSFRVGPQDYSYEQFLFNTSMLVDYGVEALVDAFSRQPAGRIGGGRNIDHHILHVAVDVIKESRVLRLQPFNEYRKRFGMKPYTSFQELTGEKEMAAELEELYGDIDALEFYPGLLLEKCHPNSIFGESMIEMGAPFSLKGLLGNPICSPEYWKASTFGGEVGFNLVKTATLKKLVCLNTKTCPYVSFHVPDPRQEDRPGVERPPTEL
Source text: as §1

[4] = 100 μM, n = 2, n.i. = no inhibition (%‐inhibition < 5 %)
[5] = Inhibition at 98 μM instead of 100 μM, n = 2

Substance | %‐inhibition at 100 [μM] (n = 2) COX‐2 [1, 4] [%] | %‐inhibition (n = 2) COX‐2 [1, 5] | IC50 ([1]; absolute IC50) [µM] | purity after 1 d [2] [%] | %‐inhibition at 100 [μM] (n = 2) COX‐1 ([3]; n = 2) [%] | %‐inhibition (n = 2) COX‐1 [3, 5] | SI = IC50(COX‐1)/IC50(COX‐2) ([1]; selectivity index) | IC50 [3] [µM] | SI = IC50(COX‐1)/IC50(COX‐2) [1] | %‐inhibition at 100 [μM] (n = 2) COX‐2 ([1]; 100 µM) [%] | IC50 [μM] (95% CI) COX‐2 ([1]; absolute IC50)
N‐[3‐(1,2‐closo‐dicarbadodecaborane)propyl]‐4‐[5‐(p‐tolyl)‐3‐(trifluoromethyl)‐1H‐pyrazol‐1‐yl]benzenesulfonamide [Compound 6] | ≤ 55 | 54 ^b) % | 120 | > 98 | ≤ 55 | 9 ^b) % |  |  |  |  | 
Cesium N‐[3‐(7,8‐nido‐dicarbadodecahydroundecaborate(−1))propyl]‐4‐[5‐(p‐tolyl)‐3‐(trifluoromethyl)‐1H‐pyrazol‐1‐yl]benzenesulfonamide [Compound 7] | 100 |  | 8.75 | > 96 | 94 |  | 1.28 | 11.2 |  |  | 
Cesium (R/S)‐2‐[2‐fluoro‐(1,1′‐biphenyl)‐4‐yl]‐N‐(7,8‐nido‐dicarbadodecahydroundecaborate(−1))‐methylpropanamide [Compound 14a] |  |  |  |  | 94 |  |  |  | 1.9 | 91 | 
N,N‐Bis[3‐(1,2‐closo‐dicarbadodecaborane)propyl]‐4‐[5‐(p‐tolyl)‐3‐(trifluoromethyl)‐1H‐pyrazol‐1‐yl]benzenesulfonamide [Compound 9] |  |  |  | > 99 |  |  |  | > 320 |  |  | 
Di‐cesium N,N‐bis[3‐(7,8‐nido‐dicarbadodecahydroundecaborate(−1))propyl]‐4‐[5‐(p‐tolyl)‐3‐(trifluoromethyl)‐1H‐pyrazol‐1‐yl]benzenesulfonamide [Compound 10] | 103 |  | 0.34 | > 99 | 103 |  | 10.3 | 3.49 |  |  | sub‐μM range
Cesium (R/S)‐2‐[2‐fluoro‐(1,1'‐biphenyl)‐4‐yl]‐N‐(7,8‐nido‐dicarbadodecahydroundecaborate(−1))‐ethylpropanamide [Compound 14b] |  |  |  |  | 72 |  |  |  | 2.7 | 80 | 
